From patent US11291625B2, “Antimicrobial compositions and methods for reducing microbial contamination” (PolyVation B.V., priority 2015, dated 2022) come the findings set out here.

The data set in a line: BKC / BEZ release assay from polymer film with aqueous BPB solution. It counts as physicochemical. The note with it: for release from 0.45% biocide coating without copolymer upon addition of the BPB solution: reference, no polymer. The method, then:
The different 5 wt % polymer formulations were supplemented with 0.45 wt % BKC and 20 μl coated to the first well of each row of a 96-well plate. After evaporation of the solvent (2-propanol), 100 μl of an aqueous BPB ([…]) solution (25×10^−3 mmol/L) was added to the coated wells and the plate was incubated for 30 seconds at room temperature. Next, the aqueous phase was removed from the well and the formation of blue BPB-BKC complexes was assessed by visual inspection. This process was repeated until blue BPB-BKC complexes were no longer observed, and the number of repeated BPB incubation steps was recorded.
The slow release properties of the PVPM20, PVPMDM, PVPMEM and PVPDDM co-polymer formulations were verified in a BKC and a BEZ release test that were performed in 96-well plates. The different polymer formulations (i.e. PVPM20-85:15, PVPM20-80:20, PVPM20-65:35, PVPMDM-60:40, PVPMDM-75:25, PVPMEM-80:20 and PVPDDM-80:20 in 2-propanol at 2.5 wt % were supplemented with 0.45 wt % BKC or BEZ. 20 μl was coated to the first well of each row of a 96-well plate. After evaporation of the 2-propanol solvent, 100 μl of an aqueous BPB solution (25×10^−3 mmol/L) was added to the coated wells and the plate was incubated for 30 seconds at room temperature. BPB forms a blue complex with free BKC and free BEZ when it is released from the polymer film into an aqueous solution. Of note, the BPB-BKC or BPB-BEZ complex is blue, whereas the BPB solution itself is purple (20). Next, the aqueous phase was removed from the well and the formation of blue BPB-BKC or BPB-BEZ complexes was assessed by visual inspection. This process was repeated until blue BPB-BKC complexes were no longer observed, and the number of repeated BPB incubation steps was recorded.
The number of cycles needed to release readily detectable amounts of BKC or BEZ was used as a measure to assess the BKC-retaining or BEZ-retaining properties of the different polymer formulations.

As to `CC(C)(C)CC(C)(C)c1ccc(OCCOCC[N+](C)(C)Cc2ccccc2)cc1` [BEZ only, benzethonium chloride], the “release from 0.45% biocide coating without copolymer upon addition of the BPB solution” value is on record as “dissolved instantaneously”. Further, the “Test2 (BEZ): Number of incubations after which BEZ was no longer detectable” value (0.45 wt % BEZ, 30 seconds incubations with aqueous BPB solution, room temperature) worked out at 1x.

Consider benzalkonium chloride [BKC only], for which the “release from 0.45% biocide coating without copolymer upon addition of the BPB solution” value is recorded as “dissolved instantaneously”. Besides, under “0.45 wt % BKC, 30 seconds incubations with aqueous BPB solution, room temperature”, the “Test1 (BKC): Number of incubations after which BKC was no longer detectable” value amounted to 1x.
